Source: paper PMC9145755, “A Small Peptide Increases Drug Delivery in Human Melanoma Cells” (Pharmaceutics, 2022)
Blank lines part the entries; values can stand above or below the compound they belong to. Where a SMILES comes first, the peptide text is derived from it. [ ]: non-standard residue; d: D form. Nle = CCCC[C@H](N)C(=O)O

Assays:
[1] = tested on: A375 melanoma cells; test: Fluorescence microscopy of peptide uptake; assay type: cell-based, human; conditions: 0.5 µM, 30 min incubation, confocal microscopy, DAPI nuclei
Method: A375 melanoma cells were plated on coverslips and allowed to adhere overnight to 75% confluence, then incubated with 0.5 µM of FITC-KK-11 for 30 min at room temperature. After treatment, cells were washed three times in 1× PBS then fixed with 4% formaldehyde in 1× PBS for 15 min at room temperature. Fixed cells were then washed three times in 1× PBS for 5 min each, followed by curing in the dark with ProLong™ Gold Antifade Mountant with DAPI (P36935, Life Technologies Corporation, Eugene, OR, USA) for 1 h. Slides were visualized and recorded using the Nikon Eclipse Ti2-E confocal microscopy system (Nikon, Melville, NY, USA) using green and blue filters with 60× magnification.

[2] = tested on: human melanoma cells (wm3211, Sk-mel-28, A375); test: In vitro cellular uptake of FITC-labeled peptides by flow cytometry; assay type: cell-based; conditions: FITC-labeled peptides 0.5 and 1 µM, A375, Sk-mel-28, wm3211, compared with FITC alone
Method: The peptide (FITC-labeled) concentration was determined using a Shimadzu BioSpec-nano Micro-volume UV-Vis spectrophotometer (Shimadzu, Kyoto, Japan). Human melanoma cells (wm3211, Sk-mel-28, and A375) were incubated with FITC or FITC-labeled peptides at final concentrations of 0.5 µM and 1 µM for 2 h. After thorough washing with cold 1× PBS, the melanoma cells in a single cell suspension were collected for flow cytometry analysis (BD FACSVerse, BD Biosciences, Franklin Lakes, NJ, USA). The mean fluorescence density of 10,000 cells was analyzed and compared to that of control cells, as described previously.

[3] = tested on: A375 melanoma cells; test: In vitro cytotoxicity, MTT colorimetric assay; assay type: cell-based, human
Method: Cells were seeded in a 96-well plate and allowed to adhere overnight prior to adding the compound [29]. After 72 h of treatment in serum-free media, an MTT solution was added to each well to give a final concentration of 0.5 mg/mL and was incubated for 3 h. Formed crystals were solubilized, and their absorbance was measured at 595 nm.

[4] = tested on: A375 human melanoma xenograft; test: In vivo xenograft melanoma mouse model; conditions: KK-11 alone, in vivo studies
Method: The study was carried out in compliance with the ARRIVE guidelines. All the animal studies and procedures were approved by the IACUC at Chapman University and conducted in compliance with the policies of Chapman University, in addition to those of federal, state, and local animal welfare authorities. Nude mice (NU/NU) were purchased from Charles River (Wilmington, MA, USA) and were housed and maintained in the Chapman University vivarium under pathogen-free conditions. A375 cells were suspended in cold Matrigel and injected subcutaneously into the flank of each mouse (1 × 10^6 cells per mouse) to establish tumors. The mice were treated by tail vein injections of 1× PBS, D-aa KK-11 alone (1.75 mg/kg), MAC-3-190 (5 mg/kg) alone, or D-aa KK-11 and MAC-3-190 co-treatment for 21 days. For the co-treatment, the solution of D-aa KK-11 and MAC-3-190 (1:11 molar ratio) was mixed gently and incubated at room temperature for 30 min before tail vein injection. The growth of the tumors was monitored three times a week and measured using digital Vernier calipers. The tumor volume (mm^3) was calculated as [Length × (Width^2)]/2 (in mm). The mice were sacrificed after 21 days per IACUC policy when the control group’s average tumor size reached 2000 mm^3. Tumor xenografts were removed and weighed.

[5] = Serum stability (human serum, RP-HPLC); assay type: in vitro ADME; conditions: human serum incubation, 37 °C, data not shown
Method: Human serum (250 µL) was thawed to room temperature and was added to DMEM media (650 µL). The mixture was kept in a 37 °C incubator to mimic human body temperature for 15 min. The peptide (100 µL, 1 mM) was dissolved (dispersed) in sterile water. The peptide solution was added to the pre-warmed human serum and DMEM mixture. The mixture was incubated at 37 °C. At different time points (0, 0.5, 1, 5, and 24 h) aliquots (100 µL) were removed and added to methanol (200 µL). Each time point sample was kept at 4 °C for 5 min, and then was centrifuged at 500× g for 15 min to separate serum proteins. The supernatant was injected into the RP-HPLC, and the major peaks were collected. The peak’s mass was determined using MALDI-TOF mass analysis. The serum stabilities of the D-aa KK-11 were determined by comparing the HPLC peaks (AUC) for the intact peptides at different time points.

[6] = tested on: athymic nude mice bearing human melanoma A375 tumors; test: In vivo and ex vivo imaging (biodistribution) in mice bearing A375 tumors; conditions: 8 µg per mouse
Method: The study was carried out in compliance with Animal Research: Reporting of In Vivo Experiments (ARRIVE) guidelines. All the animal procedures were approved by the Institutional Animal Care and Use Committee (IACUC) at Chapman University and conducted in compliance with the policies of Chapman University, in addition to those of federal, state, and local animal welfare authorities. Male and female athymic nude mice (4–6 weeks old) were kept (5 in each cage) in a pathogen-free environment. Approximately 1 million human melanoma A375 cells (0.1 mL in normal saline), mixed with 0.1 mL cold Matrigel (#354248; Corning, Corning, NY, USA), were injected subcutaneously into the flank. The tumor size was measured with a caliper, and body weight was recorded once a week. When the tumor size reached approximately 800–1000 mm^3, as calculated using the following formula: [Length × (Width^2)]/2 (in mm), mice were processed for in vivo or ex vivo imaging.
For in vivo imaging, normal saline or VivoTag-KK-11 at a dose of 8 µg per mouse was injected into the mice via the tail vein (n = 2 for each time point). The animals were then scanned at different time intervals (0.5, 2, 6, and 24 h) using an IVIS Spectrum in vivo imaging system (PerkinElmer, Waltham, MA, USA). The mice were imaged for 0.5 s, 10 bin, level B at an emission wavelength of 688 ± 5 nm. Imaging was limited to no more than once a day and was conducted under continuously maintained isoflurane. Mice were maintained on alfalfa-free diets to minimize the background fluorescence. All the study animals survived through the in vivo imaging procedure.
For ex vivo imaging at defined time intervals (5, 15, 30 min, followed by 1, 1.5, 2, 3, 4, 6, 24, and 48 h) following fluorescence conjugate injection, animals were euthanized via carbon dioxide inhalation (n = 2 for each time point); tumor, liver, spleen, heart, lungs, brain, and kidneys were collected and briefly rinsed with saline. The organs were then imaged for 0.5 s, 10 bin, level B at an emission wavelength of 688 ± 5 nm using an IVIS Spectrum imaging system.

Compound: FITC-Aβ-VPWXEPAYQRFL [FITC-KK-11, KK-11 labeled with FITC at the N-terminus via β-alanine spacer]
Cellular localisation of FITC-labeled peptide [1]: present in the cytoplasm
Uptake of FITC-labeled peptide by melanoma cells [2]: highest

Time to undetectable level of intact peptide in human serum [5]: ≤ 30 min
Compound: CCCC[C@H](NC(=O)[C@H](Cc1c[nH]c2ccccc12)NC(=O)[C@@H]1CCCN1C(=O)[C@@H](N)C(C)C)C(=O)N[C@@H](CCC(=O)O)C(=O)N1CCC[C@H]1C(=O)N[C@@H](C)C(=O)N[C@@H](Cc1ccc(O)cc1)C(=O)N[C@@H](CCC(N)=O)C(=O)N[C@@H](CCCNC(=N)N)C(=O)N[C@@H](Cc1ccccc1)C(=O)N[C@@H](CC(C)C)C(N)=O [KK-11] (H-VPW[Nle]EPAYQRFL-NH2)
Enhancement of MAC-3-190 cytotoxicity by KK-11 co-treatment ([3]; A375, KK-11 1 µM with MAC-3-190 at 25% IC50, 50% IC50, IC50 and 2× IC50, 72 h, MTT, vs MAC-3-190 alone): did not observe any significant enhancement of cytotoxicity
Effect of sequential KK-11 then DOX treatment on DOX cytotoxicity ([3]; A375, pretreated with KK-11 for 4 h, washed away, then DOX 72 h, MTT): failed to produce any changes on DOX cytotoxicity
Cytotoxicity of peptide alone, in vitro ([3]; KK-11 alone, in vitro studies): No cytotoxicity
Cytotoxicity of peptide alone, in vivo [4]: No cytotoxicity

Compound: COc1cccc2c1C(=O)c1c(O)c3c(c(O)c1C2=O)C[C@@](O)(C(=O)CO)C[C@@H]3O[C@H]1C[C@H](N)[C@H](O)[C@H](C)O1 [DOX, doxorubicin, reference compound]
Cell viability, % of control ([3]; A375, DOX 0.5 µM alone, 72 h, serum-free media, MTT): 62 % of control
Cell viability (cells survived), % of control ([3]; A375, DOX 1 µM alone, 72 h, MTT): 24%

Compound: VivoTag-Aβ-VPWxEPAYQrFL [VivoTag-KK-11, VivoTag 680 XL labeled D-amino acid analogue of KK-11]
Time post injection up to which fluorescence remained detectable in tumor xenografts, ex vivo imaging ([6]; IV tail vein, A375 xenograft nude mice, excised tumors, IVIS, n = 2 per time point): 24 h
Time after injection by which the peptide distributed to the tumor (and lungs, heart, spleen), ex vivo imaging ([6]; tail vein, A375 xenograft nude mice, IVIS, n = 2 per time point): ≤ 5 min
Brain penetration ([6]; tail vein, ex vivo organ imaging): no brain penetration was observed
Time after injection by which the peptide cleared from other organs ([6]; tail vein, ex vivo organ imaging (lungs, heart, spleen)): ≤ 6 h
Time after injection up to which the peptide was predominantly detected in kidneys ([6]; tail vein, ex vivo organ imaging, after 6 h): 48 h
